Consider five compounds from patent publication US20100240683A1, “COMBINATION THERAPY, COMPOSITION AND METHODS FOR THE TREATMENT OF CARDIOVASCULAR DISORDERS” (Syndromex Ltd., priority 2007, published 2010).

One series concerns Guinea pigs. As to the kind of experiment: Hypolipidemic effect in Guinea pigs model (plasma TG, cholesterol, lipoproteins). Format: in vivo, Guinea pig. Conditions: Simvastatin table: gavage 10 mg/kg/bw, 21 days, n = 8. The procedure: • Guinea pigs (400-500 g) were obtained from Harlan (Israel) or Harlan (Netherlands). Animals were treated by gavage with Medica 16αα, Medica 16ββ and Simvastatin as indicated in 1% CMC for the specified treatment periods. During treatment period the animals were weighed and observed daily.
Non-fasted guinea pigs were anesthetized with ketamine (75 mg/kg body weight) and xylazine (6 mg/kg body weight), followed by S.C. abdominal injections of 2% lignocaine. Anesthetized animals were bled into tubes containing EDTA. Plasma chylomicrons were removed by centrifugation (20 min, 30K rpm, TST 55.5 rotor). Plasma TG was assayed by Roche/Hitachi kit. Plasma cholesterol was assayed by Roche Diagnostic's kit.
Chylomicrons-free plasma was subjected to continuous KBr-gradient centrifugation (24 h, 40K rpm, SW41 rotor), followed by fractionating gradient tubes into 0.5 ml fractions. TG, cholesterol and protein of each fraction were measured as described above. […]
Guinea pigs were treated by gavage with M16αα, M16ββ or with Simvastatin, weighed and observed daily. Plasma triglycerides (TG) and cholesterol, as well as plasma lipoproteins and their composition were examined on days 21 and 22 (as specified in the following tables) of the experiments, as described in Experimental procedures. As clearly shown by Table 3 and FIG. 1, treatment with M16αα decreases plasma triglycerides (TG).

Series [1] addresses T1, CYP2C8 (Homo sapiens, UniProt P10632).
T1 sequence (P10632 1-490): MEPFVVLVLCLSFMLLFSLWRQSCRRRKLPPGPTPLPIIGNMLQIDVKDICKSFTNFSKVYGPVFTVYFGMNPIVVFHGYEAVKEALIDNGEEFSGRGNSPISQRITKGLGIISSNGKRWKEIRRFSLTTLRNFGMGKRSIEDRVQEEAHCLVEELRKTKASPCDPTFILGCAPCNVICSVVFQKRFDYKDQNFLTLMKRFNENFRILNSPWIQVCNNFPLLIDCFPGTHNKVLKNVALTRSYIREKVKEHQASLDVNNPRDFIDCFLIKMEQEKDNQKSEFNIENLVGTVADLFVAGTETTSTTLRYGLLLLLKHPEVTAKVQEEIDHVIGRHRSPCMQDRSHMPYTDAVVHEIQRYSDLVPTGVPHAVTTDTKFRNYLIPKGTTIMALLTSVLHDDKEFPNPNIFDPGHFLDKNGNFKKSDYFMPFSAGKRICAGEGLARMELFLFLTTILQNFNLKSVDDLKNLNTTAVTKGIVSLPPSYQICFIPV

The target of series [2] is T1, CYP2C8. The experiment in a line: in vitro.
For a further series, the target named is T2, CYP2B6 (Homo sapiens, UniProt P20813).
T2 sequence (P20813 1-491): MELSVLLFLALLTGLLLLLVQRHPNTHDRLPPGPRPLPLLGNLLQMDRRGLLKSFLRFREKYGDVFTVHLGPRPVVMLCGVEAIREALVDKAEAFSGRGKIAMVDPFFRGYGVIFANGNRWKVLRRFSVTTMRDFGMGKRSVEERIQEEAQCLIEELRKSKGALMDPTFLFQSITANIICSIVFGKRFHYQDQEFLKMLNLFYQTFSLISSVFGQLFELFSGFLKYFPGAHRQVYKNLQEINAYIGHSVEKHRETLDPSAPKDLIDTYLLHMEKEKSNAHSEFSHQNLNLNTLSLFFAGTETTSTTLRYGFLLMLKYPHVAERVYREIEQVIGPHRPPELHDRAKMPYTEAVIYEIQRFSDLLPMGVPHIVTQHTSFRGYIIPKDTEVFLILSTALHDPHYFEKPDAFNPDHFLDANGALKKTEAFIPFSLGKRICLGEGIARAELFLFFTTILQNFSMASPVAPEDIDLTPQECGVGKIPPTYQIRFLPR
As to the kind of experiment: Fluorimetric CYP inhibition assay, CYP2B6-EFC. Conditions: read-out: IC50 CYP2B6; substrate EFC.

The target of another series is T3, CYP1A2 (Homo sapiens, UniProt P05177).
T3 sequence (P05177 1-516): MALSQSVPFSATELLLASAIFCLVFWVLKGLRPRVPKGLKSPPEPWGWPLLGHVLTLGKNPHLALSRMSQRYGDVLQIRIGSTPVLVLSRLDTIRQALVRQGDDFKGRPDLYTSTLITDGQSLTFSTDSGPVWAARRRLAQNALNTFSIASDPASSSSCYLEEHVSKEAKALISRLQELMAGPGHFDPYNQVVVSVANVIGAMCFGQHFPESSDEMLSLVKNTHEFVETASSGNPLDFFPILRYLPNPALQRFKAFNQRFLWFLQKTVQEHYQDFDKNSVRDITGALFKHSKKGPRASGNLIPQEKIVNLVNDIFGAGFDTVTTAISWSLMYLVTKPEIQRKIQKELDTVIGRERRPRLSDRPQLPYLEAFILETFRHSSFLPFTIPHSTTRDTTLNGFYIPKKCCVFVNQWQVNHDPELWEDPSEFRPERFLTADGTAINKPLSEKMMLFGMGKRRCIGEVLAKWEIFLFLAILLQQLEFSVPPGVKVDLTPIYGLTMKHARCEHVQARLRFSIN
As to the kind of experiment: in vitro.

A further series has as its target CYP2C9 (Homo sapiens, UniProt P11712). The experiment in a line: Fluorimetric CYP inhibition assay, CYP2C9-MFC. Conditions: human, MFC; for inhibition at 0 μM: positive control 0.00 μM (second line); for inhibition at 0.01 μM: positive control 0.01 μM (first line); for inhibition at 0.02 μM: positive control 0.02 μM; for inhibition at 0.06 μM: positive control 0.06 μM; for inhibition at 1.67 μM: positive control 1.67 μM.

Chain of CYP2C9 (P11712 whole entry): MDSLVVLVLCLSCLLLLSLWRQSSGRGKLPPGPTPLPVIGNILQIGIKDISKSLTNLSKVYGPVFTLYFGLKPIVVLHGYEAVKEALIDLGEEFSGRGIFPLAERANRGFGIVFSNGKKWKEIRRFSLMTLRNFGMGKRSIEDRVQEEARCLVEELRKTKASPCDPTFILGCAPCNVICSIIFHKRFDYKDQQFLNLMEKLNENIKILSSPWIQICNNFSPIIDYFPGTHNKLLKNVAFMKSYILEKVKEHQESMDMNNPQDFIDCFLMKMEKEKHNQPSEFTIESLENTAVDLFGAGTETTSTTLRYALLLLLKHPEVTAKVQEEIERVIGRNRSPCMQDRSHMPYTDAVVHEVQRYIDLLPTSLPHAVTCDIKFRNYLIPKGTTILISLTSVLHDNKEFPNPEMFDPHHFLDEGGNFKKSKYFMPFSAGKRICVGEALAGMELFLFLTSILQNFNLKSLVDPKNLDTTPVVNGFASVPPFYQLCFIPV

For the compound `CCC(C)(C)C(=O)O[C@H]1C[C@@H](C)C=C2C=C[C@H](C)[C@H](CC[C@@H]3C[C@@H](O)CC(=O)O3)[C@H]21` [Simvastatin, reference compound], in the series with Guinea pigs, the “Plasma TG” value is given as 83 ± 16 mg %. Moreover, the Plasma cholesterol in the series with Guinea pigs (*p < 0.05) was 23 ± 2.0* mg %.

Usually IC50 stands for the concentration at which inhibition is half-maximal. Usually inhibition stands for the drop in the measured response relative to a control, in per cent. A low value points to a weak effect. In turn, `O=c1c(O)c(-c2ccc(O)c(O)c2)oc2cc(O)cc(O)c12` [Quercetin, reference compound] came in with an IC50 against CYP2C8 [1] of 1.4 µM. The “% Inhibition (set 2)” value at CYP2C8 [1] (0.05 μM) was found to be 0%. At CYP2C8 [2] (% Inhibition (set 1)), this compound registered an inhibition at 0.05 μM of 8%, an inhibition at 0.41 μM of 16%, an inhibition at 1.23 μM of 51% and an inhibition at 3.7 μM of 88%. At CYP2C8 [2] (% Inhibition (set 1)), the inhibition at 11.11 μM was found to be 100%, the inhibition at 33.33 μM turned out to be 100% and the inhibition at 100 μM worked out at 100%. On CYP2C8 [2] (% Inhibition (set 2)), this compound returned an inhibition at 0.05 μM of 0%, an inhibition at 0.41 μM of 9%, an inhibition at 1.23 μM of 32% and an inhibition at 3.7 μM of 89%. Also, at CYP2C8 [2] (% Inhibition (set 2)), the inhibition at 11.11 μM amounted to 98%, the inhibition at 33.33 μM came out at 100% and the inhibition at 100 μM stood at 100%.

For the compound `N[C@@H]1C[C@H]1c1ccccc1` (racemic) [Tranylcypromine, reference compound], on CYP2B6, the IC50 was 5.9 µM.

On CYP1A2 (% Inhibition (set 1)), `Cc1nc2c([nH]1)c(=O)n(C)c(=O)n2Cc1ccco1` [Furafylline, reference compound] had an inhibition at 5.56 μM of 90%. Further, the inhibition at 50 μM against CYP1A2 (% Inhibition (set 2)) is 99%.

On CYP2C9 (% Inhibition (set 1)), `Nc1ccc(S(=O)(=O)Nc2ccnn2-c2ccccc2)cc1` [Sulfaphenazole] displayed an inhibition at 0 μM of 0%, an inhibition at 0.01 μM of 0%, an inhibition at 0.02 μM of 3% and an inhibition at 0.06 μM of 11%. For the same compound, the inhibition at 1.67 μM on CYP2C9 (% Inhibition (set 1)) stood at 76%. In addition, the inhibition at 5 μM at CYP2C9 (% Inhibition (set 1), positive control 5.00 μM) came out at 89%. For the same compound, on CYP2C9 (% Inhibition (set 2)), the inhibition at 0 μM came to 0%, the inhibition at 0.01 μM was found to be 1%, the inhibition at 0.02 μM stood at 3% and the inhibition at 0.06 μM came out at 6%. Further, the inhibition at 1.67 μM against CYP2C9 (% Inhibition (set 2)) was determined as 74%.
